Source: patent EP0366632A1, “Alternative energy substrates” (priority 1988, dated 1990)

How the values were obtained:
[1] = system: Staphylococcus aureus ATCC 6535; assay: Microorganism count in 2% and 0.2% ester emulsions (Example 13); format: cell-based
Protocol: Both of the emulsions included egg-yolk phospholipide 1,2% and sterile water, in addition to ester. The emulsions were prepared aseptically, by emulsifying sterile-filtered ester with a sterilized dispersion of egg-yolk phospholipids.
Aliquots of these emulsions were diluted with phosphate buffer (0.01 M, pH=7.0), in the proportions of 1 and 100 in respective emulsions. Staphylococcus aureus ATCC 6535 was then added to the emulsions. The samples were then incubated at +37°C for 20 hours. The microorganism count was carried out after 1-5 minutes, 2 and 20 hours, in the manner described in microbiological literature. Parallel with the above experiments, a check was made on the phospholipid solution 1,2% and TSB (Tryptone soya broth), by adding Staphylococcus aureus ATCC 6535. The latter substrate was tested to ascertain whether the controlled microorganisms were viable. […] The starting concentration was about 5x10³. […] After 2 hours, the number of microorganisms was 0 and 10 respectively, and after 20 hours 0 and 0 respectively. In the samples containing 5-methyl-3-oxo-hexanoic acid ethyl ester with concentrations of 2% and 0.2%, the number of microorganisms per ml present after 1-5 minutes was 10⁴, after 2 hours 0 and 100 respectively, and after 20 hours 0 and 0 respec tively.

[2] = set-up: species or system rabbits; details: rabbit, in vivo
Protocol: Two rabbits weighing between 3.0-3.5 kg were infused intravenously (10 ml/kg body weight) with an emulsion containing 50 mg/ml of 4-methyl-3-oxo-pentanoic acid ethyl ester over a period of 5 minutes. Each rabbit received a dosage of 1.5-1.8 g over a 5 minute period. The emulsion was prepared aseptically, by emusifying sterile-filtered ester with a sterilized dispersion of egg-yolk phospholipids.
Three rabbits weighing 3.0-3.3 kg were infused intravenously (10 ml/kg body weight) with an emulsion containing 30 mg/ml of 4-methyl-3-oxo-pentanoic acid ethyl ester over a period of from 4 to 7 minutes. Each rabbit received a dosage of 0.9-1.05 g. The emulsion was prepared aseptically, by emulsifying sterile-filtered ester with a sterilized dispersion of egg-yolk phospholipids. […] The third rabbit remained normal during the whole of the infusion period. The two unconscious rabbits awakened about 2 minutes after completion of the infusion, and thereafter acted quite normally.

[3] = system: VSV (vesicular stomatitis virus); format: cell-based; details: 0.1% in tissue cultures; A549, GMK and fibroblasts; Figure 2
[4] = Admixture of ester to distilled water and amino acid solution (Vamin N), 5 days at +5°C; format: physicochemical
Protocol: 6 g of egg-yolk phospholipids were dissolved in 50 g of 5-methyl-3-oxo-hexanoic acid ethyl ester and 4-methyl-3-oxo-pentanoic acid ethyl ester respectively, while applying and stirring the system. When clear solutions had been obtained, 34 g of absolute alcohol (about 99%) were added, corresponding to the least quantity required for the solutions to remain stable in cold conditions without precipitation of phospholipids. These solutions were autoclaved at +117°C for 20 minutes. Aliquots of these solutions were taken (0.2; 1.0; 3.0 and 5% calculated on ethyl ester) and added respectively to distilled water and to an amino acid solution with a concentration of 7.18% and 9.4 g nitrogen/l (Vamin^R N). Controls were run, in which a pure product of 5-methyl-3-oxo-hexanoic acid ethyl ester and 4-methyl-3-oxo-pen tanoic acidethyl ester respectively were added to distilled water and amino acid solution respectively. All samples were shaken for 10 seconds in a shaking apparatus of the type Whirlimixer^R. The samples were then permitted to stand for 5 calender days in cold conditions (+5°C) and were read-off daily under a daylight lamp, observations being made as to the acceptable quality of the resultant emulsions (visually) or to ascertain the presence or absence of oil droplets on the surface of the emulsions, or separation thereof. […]

Row | SMILES | number of microorganisms ([1]; 0.2%, after 2 hours) [per ml] | number of microorganisms ([1]; 0.2%, after 20 hours) [per ml] | number of microorganisms ([1]; 2%, after 1-5 minutes, +37°C, starting concentration about 5x10³) [per ml] | number of microorganisms ([1]; 2%, after 2 hours) [per ml] | number of microorganisms ([1]; 2%, after 20 hours) [per ml] | time after completion of the infusion until awakening [2] | time after completion of the infusion until consciousness regained [2] | suppression of replication of VSV [3] | concentration to which the ester can be mixed (accepted samples) ([4]; free pure ester in amino acid solution (Vamin N)) [%] | concentration to which the ester can be mixed (accepted samples) ([4]; free pure ester in distilled water) [%]
1 | CCOC(=O)CC(=O)C(C)C [4-methyl-3-oxo-pentanoic acid ethyl ester] | 10 | 0 | 100 | 0 | 0 | about 2 minutes | about 2 minutes |  |  | 
2 | CCOC(=O)CC(=O)CC(C)C [5-methyl-3-oxo-hexanoic acid ethyl ester] | 100 | 0 |  | 0 | 0 |  |  | replication can be inhibited | 0.2 | 0.2
